According to article PMC3531619 (Angewandte Chemie (International Ed. in English), 2012):
Where no end group is shown, it is not given here. [ ]: non-standard residue; d: D form. Bpa = N[C@@H](Cc1ccc(C(=O)c2ccccc2)cc1)C(=O)O

Assays:
PP1 = assay: Streptavidin pull-down of PP1 with biotinylated peptides from cell lysates; type: binding, human; details: HEK293 and U2OS cell lysates, streptavidin-coated Sepharose beads, immunoblot
PP2A = assay: Streptavidin pull-down of PP2A with biotinylated peptides from cell lysates; type: binding, human; details: U2OS cell lysates, streptavidin beads, immunoblot
U2OS cells = assay: Cell viability assay; type: cell-based, human; details: conditions of the in-cell experiments

| Substance | Co-sedimentation of PP1 in pull-down (PP1) | Co-precipitation of PP2A in pull-down (PP2A) | Cytotoxicity under the experimental conditions (U2OS cells) |
| --- | --- | --- | --- |
| RRKRPKRKRKNARATAAEAAEII [PDP2m] | co-precipitated neither PP1 nor PP2A | co-precipitated neither PP1 nor PP2A | – |
| RRKRPKRKRKNARATA[Bpa]EAAEII [PDP3m] | – | – | neither PDP3 nor PDP3m showed any cytotoxicity |
